Patent publication US20250188110A1, “SPECIFIC SMALL MOLECULE INHIBITORS THAT BLOCK KMT9 METHYLTRANSFERASE ACTIVITY AND FUNCTION” (ALBERT-LUDWIGS-UNIVERSITÄT FREIBURG, priority 2021, published 2025)
Where two headings read alike, the source gives them in different places.

Columns and labels:
KMT9 [1] = biological target: T1, KMT9 (Homo sapiens, UniProt Q9Y5N5); test: KMT9 thermal shift assay (SyproOrange); format: binding; conditions: 2 μM KMT9
T1 sequence (Q9Y5N5 1-214): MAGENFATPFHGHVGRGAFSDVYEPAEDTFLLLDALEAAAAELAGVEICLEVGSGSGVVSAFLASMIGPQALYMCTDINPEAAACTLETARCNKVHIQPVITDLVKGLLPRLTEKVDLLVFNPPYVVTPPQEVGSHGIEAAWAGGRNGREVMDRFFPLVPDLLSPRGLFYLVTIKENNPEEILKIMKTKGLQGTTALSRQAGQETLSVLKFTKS
T1 sequence (Q9UI30 1-120 isoform Q9UI30-2 partner): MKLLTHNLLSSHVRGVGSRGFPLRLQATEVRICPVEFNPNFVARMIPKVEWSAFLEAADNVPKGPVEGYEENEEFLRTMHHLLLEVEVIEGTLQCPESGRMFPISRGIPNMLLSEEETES
Method in brief: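 ΔTm versus DMSO-only control is reported in bins (>20 K, 15–20 K, 10–15 K, ≤10 K), using Tm from Boltzmann sigmoidal fits of SyproOrange melt curves. KMT9 with compound in pH 8.5 BTP buffer containing MgCl2 and DTT was preincubated at 25° C, then ramped 1° C per 15 s up to 95° C.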

KMT9 [2] = biological target: T1, KMT9; test: KMT9 methyltransferase inhibition assay, MTaseGlo luminescence (from entry 155); format: biochemical; conditions: 100 nM KMT9, 5 μM ETF1, 1 μM SAM
Method in brief: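 KMT9 (100 nM final) pre-incubated with inhibitor for 15 min at room temperature, then reacted with 5 μM ETF1 and 1 μM SAM for 2 h at 30° C. at 2% DMSO final. MTaseGlo luminescence read after 60 min detection; IC50 reported in four potency bins.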

KMT9 [3] = biological target: T1, KMT9; test: Microscale thermophoresis (MST) KMT9 binding; conditions: His-tag labelled KMT9 20 nM
Method in brief: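 Kd from microscale thermophoresis: compound series against 20 nM His-KMT9 labelled via RED-Tris-NTA, buffer 25 mM HEPES (pH 7.5)/100 mM NaCl/1 mM DTT/0.05% Tween, 40% MST power, 100% LED. Reported as classes: A ≤10 nM, B >10–100 nM, C >100–1000 nM, D >1000 nM.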

[4] = ΔTm class, 500 uM compound, read-out: Thermal shift
[5] = IC50 class, MTaseGlo procedure (entries from 155 on), read-out: Inhibition
[6] = 500 µM compound, read-out: Thermal shift (ΔTm)
[7] = MTaseGlo procedure (entries from 155), read-out: Inhibition (IC50)

Compound	ΔTm at 500 µM (KMT9 [1]; [4]) [°C]	IC50 (KMT9 [2]; [5]) [nM]	Kd (KMT9 [3]; Kd class, read-out: MST) [nM]	ΔTm at 500 µM (KMT9 [1]; [6]) [°C]	IC50 (KMT9 [2]; [7]) [nM]	Kd (KMT9 [3]; read-out: MST (Kd)) [nM]
Nc1nc(Cl)nc2c1c(-c1nc(Cc3ccccc3)cs1)cn2[C@@H]1C[C@H](CNCCCNCCc2ccc(F)cc2)[C@@H](O)[C@H]1O [Compound 646, (1R,2S,3R,5R)-3-(4-Amino-5-(4-benzylthiazol-2-yl)-2-chloro-7H-pyrrolo[2,3-d]pyrimidin-7-yl)-5-(((3-((4-fluorophenethyl)amino)propyl)amino)methyl)cyclopentane-1,2-diol]	> 20	100 to 1000	10 to 100	–	–	–
CN(CCCNCCc1ccc(F)cc1)C[C@H]1C[C@@H](n2cc(-c3nc(Cc4ccccc4)cs3)c3c(N)nc(Cl)nc32)[C@H](O)[C@@H]1O [Compound 647, (1R,2S,3R,5R)-3-(4-Amino-5-(4-benzylthiazol-2-yl)-2-chloro-7H-pyrrolo[2,3-d]pyrimidin-7-yl)-5-(((3-((4-fluorophenethyl)amino)propyl)(methyl)amino)methyl)cyclopentane-1,2-diol]	–	–	–	> 20	1000 to 10000	10 to 100
CN(CCCNCCc1ccc(F)cc1)C[C@H]1C[C@@H](n2cc(-c3nccs3)c3c(N)nc(Cl)nc32)[C@H](O)[C@@H]1O [Compound 648, (1R,2S,3R,5R)-3-[4-Amino-2-chloro-5-(1,3-thiazol-2-yl)pyrrolo[2,3-d]pyrimidin-7-yl]-5-{[(3-{[2-(4-fluorophenyl)ethyl]amino}propyl)(methyl)amino]methyl}cyclopentane-1,2-diol]	–	–	–	> 20	100 to 1000	≤ 10
Nc1ncnc2c1ccn2[C@@H]1C[C@H](c2cccc(-c3cccnc3)c2)[C@@H](O)[C@H]1O [Compound 649, (1R,2S,3R,5R)-3-(4-amino-7H-pyrrolo[2,3-d]pyrimidin-7-yl)-5-(3-(pyridin-3-yl)phenyl)cyclopentane-1,2-diol]	≤ 10	> 10000	> 1000	–	–	–
Nc1ncnc2c1ccn2[C@@H]1C[C@H](c2cccc(-c3cnsc3)c2)[C@@H](O)[C@H]1O [Compound 650, (1R,2S,3R,5R)-3-(4-amino-7H-pyrrolo[2,3-d]pyrimidin-7-yl)-5-(3-(isothiazol-4-yl)phenyl)cyclopentane-1,2-diol]	≤ 10	> 10000	100 to 1000	–	–	–
O[C@@H]1[C@H](O)[C@@H](C2=CCCN(CC(F)(F)F)C2)C[C@H]1n1cc(-c2nc(Cc3ccccc3)cs2)c2cnc(Cl)nc21 [Compound 651, (1R,2S,3R,5R)-3-[5-(4-Benzyl-1,3-thiazol-2-yl)-2-chloropyrrolo[2,3-d]pyrimidin-7-yl]-5-[1-(2,2,2-trifluoroethyl)-5,6-dihydro-2H-pyridin-3-yl]cyclopentane-1,2-diol]	≤ 10	> 10000	> 1000	–	–	–
Nc1ncnc2c1ccn2[C@@H]1C[C@H](c2cccc(-c3cn[nH]c3)c2)[C@@H](O)[C@H]1O [Compound 652, (15,2R,3R,5R)-3-(3-(1H-pyrazol-4-yl)phenyl)-5-(4-amino-7H-pyrrolo[2,3-d]pyrimidin-7-yl)cyclopentane-1,2-diol]	≤ 10	> 10000	> 1000	–	–	–
Nc1ncnc2c1ccn2[C@@H]1C[C@H](c2cccc(-c3cncs3)c2)[C@@H](O)[C@H]1O [Compound 653, (1R,2S,3R,5R)-3-(4-amino-7H-pyrrolo[2,3-d]pyrimidin-7-yl)-5-(3-(thiazol-5-yl)phenyl)cyclopentane-1,2-diol]	≤ 10	> 10000	> 1000	–	–	–
Nc1ncnc2c1ccn2[C@@H]1C[C@H](c2cccc(-c3cscn3)c2)[C@@H](O)[C@H]1O [Compound 654, (1R,2S,3R,5R)-3-{4-aminopyrrolo[2,3-d]pyrimidin-7-yl}-5-[3-(1,3-thiazol-4-yl)phenyl]cyclopentane-1,2-diol]	≤ 10	> 10000	> 1000	–	–	–
Nc1nc(Cl)nc2c1ccn2[C@@H]1C[C@H](c2ccc(O)cc2)[C@@H](O)[C@H]1O [Compound 655]	–	–	–	10 to 15	100 to 1000	≤ 10
CNc1nc(Cl)nc2c1ccn2[C@@H]1C[C@H](c2ccc(O)cc2)[C@@H](O)[C@H]1O [Compound 656, (1R,2S,3R,5R)-3-(2-chloro-4-(methylamino)-7H-pyrrolo[2,3-d]pyrimidin-7-yl)-5-(4-hydroxyphenyl)cyclopentane-1,2-diol]	–	–	–	≤ 10	1000 to 10000	10 to 100
